Here are results for one compound from patent US11731977B2, “SGC stimulators” (Cyclerion Therapeutics, Inc., priority 2016, dated 2023).

Like-named read-outs stand apart in the source and are kept apart here. Marks after values point to notes of the source that are not given here.

Data set [1] in a line: Non-human primate (NHP) CSF pharmacokinetic properties (Example 6). The class given is in vivo, Cynomolgus monkeys. The conditions noted are these: male, Cynomolgus monkey. The method, then: Protocol PK in NHP was determined following intravenous and oral dosing. For the intravenous (IV) experiments, a group of 4 male Cynomolgus monkeys were used. The IV group was dosed with 0.3 mg/kg of a compound formulated as a solution in 10% PEG-400, 25% of a 20% Solutol HS 15 in Water, and 65% DPBS. IV doses were administered by injection and delivered via catheter into the cephalic vein. For the oral (PO) experiments, a group of 4 male Cynomolgus monkeys were used. The PO group was dosed with 1 mg/kg of a compound formulated as a suspension in 1% HPMC E5, 0.2% Tween 80, 0.5% MC in water. PO doses were administered by oral gavage and delivered via gelatin capsule.
Plasma and CSF samples were collected as follows: samples of CSF and blood were collected at 1, 4 and 24 hours post IV dosing and 2, 8 and 24 hours post PO dosing. CSF samples (0.05 mL) were collected either the cisterna magna (primary site) or the lumbosacral region (L4/5) via direct needle puncture at the appropriate time points. Blood samples (0.25 mL) were collected from a peripheral vein. These samples were kept on ice until processed for plasma. Blood samples were centrifuged at 3200 rpm for 5 minutes at approximately 5° C. within 1 hour of collection. Plasma was directly transferred to a 96-well plate tube (0.125 mL). Plug caps were placed on the tubes and the tubes frozen at approximately −70° C. and stored until analysis. Plasma was collected and analyzed for the presence of a compound.
Quantitation of Compounds. The compound of the invention and the internal standard were extracted from plasma and CSF by precipitation. Samples were analyzed using liquid chromatography (LC) with tandem mass spectrometric detection (MS/MS) using electrospray ionization. The standard curve range was from 1 to 1000 ng/mL. Results of the compounds described herein in this assay are illustrated in Tables 6a and 6b below (0.3 mg/kg IV dose, 1 mg/kg PO dose).
Kp,uu is defined as the concentration ratio of unbound drug in CSF to unbound drug in plasma. Unbound drug in plasma (or free plasma concentration) is calculated by multiplying the total plasma concentration by the unbound fraction as determined by plasma protein binding. The CSF concentration is then divided by the free plasma concentration to determine the Kp,uu. (See e.g., Di et al., J. Med Chem., 56, 2-12 (2013))

Data set [2] concerns cGMP in rat CSF. Description: Rat CSF biomarker (cGMP) measurement (Example 7). In kind it is in vivo. The method, then:
This experiment was to determine the effect of different doses of a compound of the invention on the cGMP response as well as the compound concentration in rat CSF and compound concentration in rat plasma. Protocol. Each rat was sampled one time or multiple times with 3 or more days in between each dosing. Day before the experiment. Fast rats overnight with ad libitum access to water. Day of the experiment. Compound and cyclic guanosine monophosphate (cGMP) in rat CSF was determined following oral dosing. Male Sprague-Dawley rats with an indwelling catheter placed in the cisterna magna were used. The rats were dosed with 0 mg/kg (n=15), 3 mg/kg (n=19) and 10 mg/kg (n=20) of a compound of the invention formulated as a suspension in 0.5% methylcellulose, 0.5% Tween80. PO doses were administered by oral gavage and delivered to the stomach using a syringe and gavage tube. Following oral dosage administration, the gavage tube was flushed with approximately 0.5 mL of water to ensure complete delivery of the full dose. Plasma and CSF samples were collected under isoflurane anesthesia as follows: samples of CSF were collected at 1 hour and 6 hours post-dosing and samples of blood were collected 1 h post-dosing. CSF samples were collected through the intracisternal catheter. Approximately 20 μL of CSF and discard (dead volume is 14-16 μL); then withdraw approximately 50 μL of CSF in eppendorf tubes containing 5 μL of glacial acetic acid. Snap freeze CSF by immersion in liquid nitrogen. Blood samples (0.25 mL) were collected through retro-orbital sampling. These samples were kept on ice until processed for plasma. Blood samples were centrifuged at 3200 rpm for 10 minutes at approximately 5° C. within 1 hour of collection. Plasma was directly transferred to a 96-well plate tube (0.125 mL). Plug caps were placed on the tubes and the tubes frozen at approximately −70° C. and stored until analysis. Plasma was collected and analyzed for the presence of a compound. Quantitation of Compounds and cGMP. The compound of the invention, cGMP and the internal standard were extracted from plasma and CSF by precipitation. Samples were analyzed using liquid chromatography (LC) with tandem mass spectrometric detection (MS/MS) using electrospray ionization. The standard curve range was from 1 to 1000 ng/mL. Results of the compounds described herein in this assay are illustrated in Table 7 below (3 and 10 mg/kg dose). Statistics were determined by planned comparison t-tests.

The compound `Fc1ccccc1Cc1nc(-c2nc(C(F)(F)F)n[nH]2)cn2ccnc12` [Compound I-1, 8-(2-fluorobenzyl)-6-(3-(trifluoromethyl)-1H-1,2,4-triazol-5-yl)imidazo[1,2-a]pyrazine] had a Kp uu at 1 h in data set [1] (CSF / unbound plasma, 0.3 mg/kg IV, @ 1 h) of 1.8. The Kp uu at 4 h in data set [1] (CSF / unbound plasma, 0.3 mg/kg IV, @ 4 h) stood at 3. Also, the Kp uu at 24 h is 2.8 in data set [1] (CSF / unbound plasma, 0.3 mg/kg IV) and 2.1 in data set [1] (CSF / unbound plasma, 1 mg/kg PO). In data set [1] (CSF / unbound plasma, 1 mg/kg PO, @ 2 h), this compound showed a Kp uu at 2 h of 1.8. Further, the Kp uu at 8 h in data set [1] (CSF / unbound plasma, 1 mg/kg PO, @ 8 h) was determined as 2.5. Besides, the concentration at 1 h in data set [1] (CSF, 0.3 mg/kg IV, @ 1 h, read-out: CSF Conc.) turned out to be 27 nM. For the same compound, the concentration at 4 h in data set [1] (CSF, 0.3 mg/kg IV, @ 4 h, read-out: CSF Conc.) came to 20 nM. In addition, the concentration at 24 h stood at 6 nM in data set [1] (CSF, 0.3 mg/kg IV, read-out: CSF Conc.) and 11 nM in data set [1] (CSF, 1 mg/kg PO, read-out: CSF Conc.). In addition, the concentration at 2 h in data set [1] (CSF, 1 mg/kg PO, @ 2 h, read-out: CSF Conc.) was determined as 42 nM. Besides, the concentration at 8 h in data set [1] (CSF, 1 mg/kg PO, @ 8 h, read-out: CSF Conc.) stood at 31 nM. For the same compound, the “CSF Conc. (nM @ 1 h)” value in data set [2] (3 mg/kg PO) is given as 7.2* nM; in data set [2] (10 mg/kg PO), 14.8** nM. Also, the “CSF Conc. (nM @ 6 h)” value in data set [2] (3 mg/kg PO) was 6.7 nM; in data set [2] (10 mg/kg PO) it was 13.8* nM.
